Assay [1] concerns the target T1, EAAT1 (JumpIn-EAAT1 cells) (Homo sapiens, UniProt P43003).
T1 construct: expressed in transfected cells; host or cells: Jump In T-REx HEK 293
Description: Impedance-based phenotypic assay (xCELLigence) on JumpIn-EAAT1 cells. In kind it is cell-based. The note with it: net AUC 0–120 min. On the procedure: (§1) In short, cells are cultured in medium on gold-plated electrodes in microwell E-plates.
(§2) Assays were performed at 37°C and 5% CO2 in 96-well PET E-plates in a total volume of 100 µl per well. Prior to cell seeding, the baseline impedance (Z0) was measured in the recording station in 40 µl (two compound additions) or 45 µl (one compound addition) medium in the presence (+) or absence (−) of 1 μg/ml dox. All compounds were diluted in phosphate-buffered saline (PBS) and added in 5 µl per addition using a VIAFLO 96 handheld electronic 96 channel pipette (INTEGRA Biosciences, Tokyo, Japan). When DMSO was used as a solvent for a compound, the final amount of DMSO was kept at 0.1% per well and was included in the vehicle (PBS/DMSO). All conditions were tested at two technical replicates per plate.
(§3) Transiently transfected JumpIn-EAAT1 cells were detached using only PBS/EDTA. The E-plate was left to rest at room temperature for 30 min prior to replacement in the recording station at 37°C and 5% CO2. Cell growth was recorded overnight for 22 h. If a pretreatment was required for the experiment, the cells were pretreated after 22 h with either a concentration of inhibitor or vehicle (PBS/DMSO) and cells were monitored for 60 min. For GPCR antagonist experiments, a maximum concentration of LY341495 (1 µM) was used. […] After the pretreatment, cells were stimulated with substrate or vehicle (PBS). […] After stimulation the impedance was measured for at least 2 h. […] Properly washed plates were re-used up to two times.
(§4) Experimental data was recorded using RTCA Software v2.0 or v2.1.1 (ACEA Biosciences). In the RTCA Software CI values were normalized to the time point prior to substrate/agonist stimulation resulting in normalized Cell Index (nCI) values. The nCI data were exported and subsequent analyses and data visualizations were done using GraphPad Prism v9 (GraphPad Software, San Diego, CA, United States). In all experiments, nCI values of vehicle-only conditions were subtracted from all other conditions to correct for vehicle-induced, substrate-independent effects. […] The potency values of substrates and inhibitory potencies of EAAT inhibitors were determined by fitting the net AUC data to a sigmoidal concentration-effect curve with a variable slope.

The test system of assay [2] is JumpIn-EAAT1-LifeAct-GFP cells. Description: Automated confocal microscopy of the actin cytoskeleton (cell spreading). In kind it is cell-based, human. Particulars: dox-induced cells, 1 mM, within 2 h. Here is the method:
For visualization of the actin cytoskeleton, JumpIn-EAAT1 cells were transduced with a lentiviral GFP-LifeAct cDNA expression vector and were maintained in culture medium containing 2 μg/ml puromycin to select for successfully transduced cells.
JumpIn-EAAT1-LifeAct-GFP cells were seeded at 20,000 cells/well on a SCREENSTAR black-walled clear-bottom 96-well culture plate in 90 µl culture medium and grown for 24 h at 37°C and 5% CO2. […] Microscopy was performed on a Nikon Eclipse Ti2 C2+ confocal microscope (Nikon, Amsterdam, Netherlands). This system was equipped with a 37°C incubation chamber, an automated xy-stage, an integrated Perfect Focus System (PFS) and 408, 488, and 561 nm lasers. The system was controlled by Nikon’s NIS software. All images were acquired using a Plan-Apochromat ×20 objective with 0.75 NA, at a resolution of 512 × 512 pixels.

The target in assay [3] is EAAT1 (endogenous, MDA-MB-468 cells) (Homo sapiens, UniProt P43003). In words: Impedance-based phenotypic assay on MDA-MB-468 cells. In kind it is cell-based. Here is the method:
MDA-MB-468 cells were cultured as adherent cells in DMEM containing 10% (v/v) FCS, 2 mM Glutamax, 100 IU/ml penicillin and 100 μg/ml streptomycin (culture medium) at 37°C and 5% CO2. Cells were split twice weekly at 1:3–1:4 ratios in 10 cm culture dishes.
as §1, §2, §4

The subject of a further assay is 1321N1 cells. In words: Impedance-based phenotypic assay on 1321N1 cells. The format is cell-based, human. Particulars: 1 mM. On the procedure: Label-free whole-cell assays, based on cell-induced changes in impedance, were performed using the xCELLigence real-time cell analyzer (RTCA) system (ACEA Biosciences, San Diego, CA, United States) as described previously ([Vlachodimou et al., 2019]; [Sijben et al., 2021a], [2021b]). In short, cells are cultured in medium on gold-plated electrodes in microwell E-plates. Per well impedance is continuously measured at 10 kHz and is converted to the unitless parameter Cell Index (CI) by the following formula: CI=(Zi−Z0)Ω/15Ω where Zi is the impedance at any given time point and Z0 is the baseline impedance measured at the start of each experiment ([Kho et al., 2015]).
Assays were performed at 37°C and 5% CO2 in 96-well PET E-plates in a total volume of 100 µl per well. Prior to cell seeding, the baseline impedance (Z0) was measured in the recording station in 40 µl (two compound additions) or 45 µl (one compound addition) medium in the presence (+) or absence (−) of 1 μg/ml dox. […]
Experimental data was recorded using RTCA Software v2.0 or v2.1.1 (ACEA Biosciences). […] The potency values of substrates and inhibitory potencies of EAAT inhibitors were determined by fitting the net AUC data to a sigmoidal concentration-effect curve with a variable slope.

Assay [4] has as its target T2, EAAT1 (JumpIn-EAAT1-mock cells) (Homo sapiens, UniProt P43003).
T2 construct: expressed in transfected cells; host or cells: Jump In T-REx HEK 293
In words: Impedance-based TRACT assay (xCELLigence) on mock-transfected JumpIn-EAAT1 cells. The format is cell-based. Particulars: no inhibitor. On the procedure:
as §1, §2, §3
Experimental data was recorded using RTCA Software v2.0 or v2.1.1 (ACEA Biosciences). In the RTCA Software CI values were normalized to the time point prior to substrate/agonist stimulation resulting in normalized Cell Index (nCI) values. The nCI data were exported and subsequent analyses and data visualizations were done using GraphPad Prism v9 (GraphPad Software, San Diego, CA, United States). […] The potency values of substrates and inhibitory potencies of EAAT inhibitors were determined by fitting the net AUC data to a sigmoidal concentration-effect curve with a variable slope.

Assay [5] relates to EAAT1 / mGluR2 (JumpIn-EAAT1-mGluR2 cells). In words: Impedance-based TRACT assay (xCELLigence) on JumpIn-EAAT1-mGluR2 cells. The format is cell-based, human. The note with it: for Substrate pEC50 ± SEM (AUC = 0–15 min): JumpIn-EAAT1-mGluR2, +dox.
For assay [6], the target named is T3, EAAT1 / mGluR2 (JumpIn-EAAT1-mGluR2 cells) (Homo sapiens, UniProt P43003).
T3 construct: FLAG-tag (N); expressed in transfected cells; host or cells: Jump In T-REx HEK 293 (JumpIn-EAAT1), transiently transfected with mGluR2 cDNA
The assay is described as above. In kind it is cell-based.

Where a name gives a salt, the structure may show the parent alone. Read-outs that look alike come from different tables or passages of the source. Marks after values point to notes of the source that are not given here.

T2 sequence (P43003 whole entry, the tested form may be a part): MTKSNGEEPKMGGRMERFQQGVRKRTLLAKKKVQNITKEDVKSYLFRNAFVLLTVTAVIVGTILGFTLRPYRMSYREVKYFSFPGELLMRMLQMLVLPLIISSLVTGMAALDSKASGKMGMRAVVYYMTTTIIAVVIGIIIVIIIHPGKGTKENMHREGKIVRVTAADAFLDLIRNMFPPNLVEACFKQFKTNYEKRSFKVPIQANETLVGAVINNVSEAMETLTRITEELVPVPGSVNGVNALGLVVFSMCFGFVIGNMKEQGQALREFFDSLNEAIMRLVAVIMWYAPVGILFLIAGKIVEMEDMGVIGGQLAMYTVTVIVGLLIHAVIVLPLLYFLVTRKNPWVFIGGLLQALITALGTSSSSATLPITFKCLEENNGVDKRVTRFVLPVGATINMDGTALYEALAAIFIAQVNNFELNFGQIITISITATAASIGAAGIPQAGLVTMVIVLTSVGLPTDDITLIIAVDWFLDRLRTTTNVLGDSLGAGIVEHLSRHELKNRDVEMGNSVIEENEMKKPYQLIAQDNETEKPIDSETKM
T1 sequence (P43003 whole entry): as the sequence (P43003 whole entry, the tested form may be a part) above
T3 sequence (P43003 whole entry, the tested form may be a part): as above
Sequence of EAAT1 (endogenous, MDA-MB-468 cells) (P43003 whole entry): as the sequence (P43003 whole entry, the tested form may be a part) above

Regarding `N[C@@H](CCC(=O)O)C(=O)O` [L-glutamate, L-glutamic acid monosodium salt monohydrate], the “Substrate pEC50 ± SEM” value was 3.4 ± 0.0 in assay [1] (JumpIn-EAAT1, +dox) and 4.0 ± 0.2 ^b in assay [3]. Further, the EC50 in assay [1] (JumpIn-EAAT1, −dox, read-out: Substrate pEC50 ± SEM (converted)) was 63.1 µM; in assay [4] (+dox, net AUC 0–15 min, read-out: Substrate pEC50 ± SEM (AUC = 0–15 min) (converted)) it was greater than 1000 µM; in assay [4] (+dox, net AUC 0–120 min, read-out: Substrate pEC50 ± SEM (AUC = 0–120 min) (converted)), 316 µM; in assay [4] (Substrate pEC50 ± SEM (AUC = 0–120 min), −dox, net AUC 0–120 min) it was 100 µM; in assay [6], 501 µM. Further, in assay [2], the “Change in cell morphology after stimulation” value is recorded as “drastically extend their actin cytoskeleton outward”. For the same compound, the “Cellular response within 180 min” value in the assay with 1321N1 cells is reported as “did not show a substantial cellular response”. The “Substrate pEC50 ± SEM (AUC = 0–15 min)” value in assay [5] (no inhibitor, net AUC 0–15 min) is on record as less than 3.0; in assay [5] (pretreated 1 h with 10 µM UCPH-101, net AUC 0–15 min), 3.7 ± 0.2. Further, the “Substrate pEC50 ± SEM (AUC = 0–120 min)” value in assay [5] (JumpIn-EAAT1-mGluR2, −dox, no inhibitor, net AUC 0–120 min) is on record as 4.3 ± 0.1.

These data come from article PMC9169222, “Impedance-Based Phenotypic Readout of Transporter Function: A Case for Glutamate Transporters” (Frontiers in Pharmacology, 2022).
